Reference: the NIST ThermoML archive (doi:10.1016/j.jct.2004.09.022)
± gives the expanded uncertainty stated by the source.

Columns and labels:
[1] = refractive index (Na D-line) (dimensionless); conditions: 293.15 K; 101.33 kPa; Liquid; Standard Abbe refractometry
[2] = Liquid; for mass density: 293.15 K, 101.33 kPa

Compound | refractive index [1] | mass density ([2]; Vibrating tube method) | Normal boiling temperature ([2]; Fisher boiling point apparatus) | mass density [2] | Normal boiling temperature [2]
CC(C)CCO [3-methylbutan-1-ol] | 1.4075 ± 0.0008 | 808.4 ± 2.2 kg/m3 | 131.40 ± 0.2 °C |  | 
O [water] | 1.3324 ± 0.0008 |  |  | 999.9 ± 0.6 kg/m3 | 100.1 ± 0.2 °C
